Measured values: patent US20030134865A1, “Modulation of histone deacetylase” (priority 2003, published 2003)
In brackets after ≈: the same amount, converted by molar mass. Several values for one entry are separate records, joined by “and”; a condition that tells them apart may be missing. Equal entries are not always repeated.

Legend:
[1] = test system: histone deacetylase (HDAC) activity, A549 cells; experiment: Histone deacetylation activity in total cellular extracts of treated A549 cells
Description: (B) Effect of Trichostatin A (TSA) on histone deacetylase activity and histone H4 acetylation. Cells were treated with increasing concentrations of TSA for 6 hrs before total cellular proteins were isolated and analysed for deacetylase activity and also histone acetylation by Western blotting using an anti-pan acetylated histone H4 antibody.
Effect of theophylline on histone deacetylase (HDAC) activity in A549 cells. (a) Cells were stimulated with LPS (3 ng/ml) for 24 hours in the presence or absence of theophylline (10^−5 M) or Dex (10^−6 M). Total cellular proteins were extracted and histone deacetylase activity measured. (b) Direct effect of theophylline on HDAC activity. […] Results are expressed as mean±SEM (n=3-5, *p<0.05, **p<0.01).

[2] = test system: histone acetylation, A549 cells; experiment: Histone acetylation, [3H]-acetate incorporation in whole A549 cells; format: cell-based
Source text: Histones were isolated and separated by SDS-PAGE and [^3H]-acetate incorporated histones were counted and normalised to protein level. […] Data represents mean±SEM of 3 independent experiments. **p<0.01.

[3] = test system: p65-associated histone acetylation; experiment: p65-immunoprecipitated histone acetylation (IP-HAT assay); format: cell-based
Description: Total cellular proteins were isolated and p65 associated proteins immunoprecipitated under stringent conditions (see methods). The associated histone acetylation activity was measured following incubation of the p65-IP extract with 10 μg free core histones and 0.25 mCi of ^3H-acetyl CoA for 45 minutes.
Histone acetylation experiments were performed as in (A) in the presence of TSA (100 ng/ml).
Extracts were prepared using 100 μl of stringent immunoprecipitation (IP) buffer (50 mM Tris-HCl, pH 8.0, 150 mM NaCl, 1.0% triton X-100, 0.5% NP-40, 0.1% SDS, 0.5% deoxycholate, complete protease inhibitor cocktail (Boehringer-Mannheim)) or mild IP buffer (10 mM Tris-HCl, pH 8.0, 150 mM NaCl, 0.5% NP-40, complete protease inhibitor cocktail (Boehringer-Mannheim)). […] After microcentrifugation, 20 μl of A/G agarose conjugated with 5 μg of antibody were used to precipitate CBP, PCAF, GR or p65 overnight at 4° C. with rotation.
Immune complexes with resin were resuspended in 150 μl of HAT buffer (50 mM Tris-HCl, pH 8.0, 10% glycerol, 1 mM dithiothreitol, 0.1 mM EDTA, complete protease inhibitor cocktail). Typically, 20 μl of free core histone solution extracted from A549 cells (final amount 10 μg) and 30 μl of immunoprecipitate were incubated. Reactions were initiated by the addition of 0.25 mCi of [^3H] acetyl-CoA (5 Ci/mmol)(Amersham) and performed for 45 min at 30° C.

[4] = test system: GM-CSF release, A549 cells; experiment: GM-CSF release from A549 cells (ELISA)
Description: GM-CSF ELISA: Determination of GM-CSF expression was measured by sandwich ELISA (Pharmingen, Lugano, Switzerland) according to the manufacturer's instructions.

[5] = test system: SLPI production, A549 cells; experiment: SLPI production by A549 cells (ELISA); format: cell-based
Description: A549 cells were grown to 50% confluence in Dulbecco's modified medium (DMEM) containing 10% fetal calf serum (FCS) before incubation for 48-72 hr in serura-free media.
Determination of GM-CSF expression was measured by sandwich ELISA (Pharmingen, Lugano, Switzerland) according to the manufacturer's instructions. For immunoassay of SLPI and acetylated histone, polystyrene microtitre plates were coated overnight at 4° C. with sample diluted with hydroxy carbonate (pH 9.6). Plates were blocked for 2 hr with 5 % ovalbumin in PBS. Antibodies against SLPI (R&D Systems Europe, Abingdon, UK), K5, K8, K12 and K16 acetylated histone 4 (Serotec, Oxford, UK) were diluted 1:300-1:1000 and added to each plate. After 1 hr at room temperature plates were washed sequentially with 0.1% Tween20-PBS and incubated with HRP conjugated goat anti-rabbit antibody (DAKO, Cambridge, UK) for 1 hr. Detection was performed with ABTS following Pharmingen instructions. Recombinant human SLPI (R&D Systems Europe) was used as a standard. As a standard for acetylated histone, crude extracted histone from A549 cells incubated with TSA (100 ng/ml) for 6 hr was used, and the value was calculated in units, where 1 unit is equivalent to the absorbance of 50 ng of TSA-treated hyperacetylated histone after subtraction of BSA-induced histone acetylation.

[6] = test system: histone H4 lysines K5, K8, K12, K16; experiment: Immunocytochemical staining for acetylated histone H4 lysine residues; format: cell-based; conditions: 6 hr
Description: Immunocytochemical staining for specific histone H4 acetylated lysine residues. […] Results are representative of 4 independent experiments.
Cells were washed with Hanks solution, and air-dried for 30 min at RT. Cells were then fixed in ice-cold acetone-methanol (50/50, w/w) (−20° C.) for 10 min. Slides were air dried and incubated with blocking buffer (20% normal swine serum in PBS, 0.1% saponin)(Dako) for 20 mmn followed by 1 hr incubation with primary antibody solution (PBS, 0.1% saponin, 1% BSA). Antibodies against pan-acetylated H4, H4-K5, H4-K8, H4-K12 and H4-K16 (Serotec) were used at 1:100 to 1:300 dilution. Slides were washed twice and incubated with biotinylated swine anti-rabbit IgG (Dako)(1:200) for 45 min. Slides were washed again before incubation with fluorescein isothiocyante-conjugated streptavidine (1:100) for 45 min. The slides were washed twice more before counterstaining with 20% haematoxyline, and mounting. Stained cells were observed by confocal microscopy. Confocal scanning laser microscopy images were collected with a Leica confocal microscope, equipped with a 488/514 nm dual band argon ion laser. An oil-immersion objective was used and images were collected using TCSNT software.

HDAC activity = experiment: Direct effect on HDAC activity of nuclear proteins from untreated A549 cells; format: biochemical; conditions: for effect on theophylline-induced increased HDAC activity: inhibitor 1 μM; for direct effect on HDAC activity: nuclear extracts, IBMX 500 μM, rolipram 10 μM, CGS-15943 10 μM
Description: FIG. 13. […] (a) Direct effect of the PDE4 inhibitor rolipram (10 μM) and the adenosine receptor antagonist CGS-15943 (10 μM) on HDAC activity. […] (b) Direct effect of the MEK inhibitor PD089159 (1 μM) and the p38 MAPK inhibitor SB203580 on theophylline induced HDAC activity.

[7] = test system: HAT activity, BAL macrophages; experiment: HAT activity in BAL macrophages; conditions: rolipram 10 μM
Description: HAT activity (a) and HDAC activity (b) were measured as described in the methods. Results are expressed as mean±SEM (n=5).
Fibreoptic bronchoscopy and isolation of BAL macrophages: Subjects attended our bronchoscopy suite at 8.30 am after having fasted from midnight and were pretreated with atropine (0.6 mg iv) and midazolam (5-10 mg iv). Oxygen (31/min) was administered via nasal prongs throughout the procedure and oxygen saturation was monitored with a digital oximeter. Using local anaesthesia with lidocaine (4%) to the upper airways and larynx, a fibreoptic bronchoscope (Olympus BF10) was passed through the nasal passages into the trachea. Bronchoalveolar lavage (BAL) was performed from the right middle lobe using warmed 0.9% NaCl with 4 successive aliquots of 60 mls of 0.9% NaCl. […] Cytospins were prepared and stained with May-Grunwald stain for differential cell counts. Cell viability was assessed using trypan blue exclusion.
After incubation for 10 min at 37° C. cells were stimulated for 6 hr. […] Gels were stained with Coommasie brilliant blue and the core histones (H2A, H2B, H3 and H4) excised. The radioactivity in extracted core histones was determined by liquid scintillation counting and normalised to protein level.

[8] = test system: HDAC activity, BAL macrophages; experiment: HDAC activity in BAL macrophages; format: cell-based, human; conditions: 24 hours, rolipram 10 μM
HAT activity = experiment: Direct effect on HAT activity; format: biochemical; conditions: IBMX 500 μM, rolipram 10 μM, CGS-15943 10 μM
CBP, PCAF = experiment: CBP and PCAF expression in A549 cells (Western blot); format: cell-based; conditions: 10^−8 and 10^−6M, 6 hrs
Source text: Proteins were extracted and size fractionated by SDS-PAGE and CBP and PCAF detected by Western blotting. Results are representative of 3 independent experiments. […] Immunoreactive bands were detected by ECL.

[9] = test system: CBP-associated HAT activity; experiment: CBP-immunoprecipitated histone acetylation (IP-HAT assay); format: cell-based
Description: […]. Cells were treated as in (A) and CBP immunoprecipitated under stringent conditions (see methods). Histone acetylation was measured as in (A) and results presented as mean±sem of at least 3 independent experiments, *p<0.05.
[…]. Cells were treated as in (A) and CBP immunoprecipitated under mild conditions (see methods). Histone acetylation was measured as in (A). […] Results presented as mean±sem of at least 3 independent experiments, *p<0.05.
Extracts were prepared using 100 μl of stringent immunoprecipitation (IP) buffer (50 mM Tris-HCl, pH 8.0, 150 mM NaCl, 1.0% triton X-100, 0.5% NP-40, 0.1% SDS, 0.5% deoxycholate, complete protease inhibitor cocktail (Boehringer-Mannheim)) or mild IP buffer (10 mM Tris-HCl, pH 8.0, 150 mM NaCl, 0.5% NP-40, complete protease inhibitor cocktail (Boehringer-Mannheim)). The lysis mixture was incubated on ice for 15 min and microfuged for 10 min at 4° C. Extracts were precleared with 20 μl of A/G agarose (a 50:50 mix; Santa Cruz, Santa Cruz, Calif.) and 2 μg of normal IgG. After microcentrifugation, 20 μl of A/G agarose conjugated with 5 μg of antibody were used to precipitate CBP, PCAF, GR or p65 overnight at 4° C. with rotation. […]
IP-HAT assays were performed using a modified method of Ogryzko (Ogryzko, V. V et al (1996) Cell 87:953-959). […] The dried filters were counted in a liquid scintillation counter.

How did the “reduction of total cell HDAC activity” value ([1]; LPS, 6 hrs) turn out when lipopolysaccharide [LPS] was run?
Its value is 30%.

Which results are given for “IL-1β: interleukin used to stimulate A549 cells (1 ng/ml)”?
histone acetylation, IL-1β alone ([2]; IL-1β 1 ng/ml, whole cell incorporation): 137±15 dpm/μg protein and 71±9 dpm/μg protein; histone acetylation 30 min after IL-1β-stimulation ([2]; versus 18±4): 41±6 dpm/μg protein; increase in histone acetylation ([2]; whole cell): 4-5 fold and 4 fold; increase of p65-immunoprecipitated histone acetylation ([3]; IL-1β stimulation): 9-10 fold; IL-1β-stimulated GM-CSF release ([4]; A549 cells): 714 ± 94 pg/mL; increase in GM-CSF release ([4]; IL-1β 1 ng/ml): 30 fold; GM-CSF within the culture supernatant ([4]; IL-1β 1 ng/ml, 6 hr, untreated cells 30±10): 157 ± 6 ng/mL; SLPI production ([5]; IL-1β 1 ng/ml, versus 1.2±0.3 control): 6.0 ± 0.5 ng/mL; acetylated histone H4 K8 [6]: 42±15 % positive nuclei; acetylated histone H4 K12 [6]: 37±4 % positive nuclei

With `COc1cccc(-c2cc(=O)c3ccccc3o2)c1N` [PD089059] as the compound, how does the “effect on theophylline-induced increased HDAC activity” value (HDAC activity) read?
The value was “failed to have any effect”.

Which “effect on theophylline-induced increased HDAC activity” value (HDAC activity) does the source give for `C[S+]([O-])c1ccc(-c2nc(-c3ccncc3)c(-c3ccc(F)cc3)[nH]2)cc1` (centres unmarked) [SB203580] here?
The value was “significantly inhibited”.

Which results are given for `COc1ccc(C2CNC(=O)C2)cc1OC1CCCC1` (centres unmarked) [rolipram]?
HAT activity [7]: no effect; HDAC activity [8]: no effect; direct effect on HAT activity (HAT activity): no direct effect; direct effect on HDAC activity (HDAC activity): no direct effect

How did the “GM-CSF release, IL-1β plus H2O2” value ([4]; A549 cells) turn out when `OO` [H2O2] was run?
Its value is 2054 ± 342 pg/mL.

`CC(C)Cn1c(=O)n(C)c(=O)c2[nH]cnc21` [IBMX] was tested. Which “direct effect on HAT activity” value (HAT activity) did it give?
The value was “no direct effect”.

What about the “direct effect on HDAC activity” value (HDAC activity) of the same compound?
Its value is “no direct effect”.

`C[C@@H]1C[C@H]2[C@@H]3CCC4=CC(=O)C=C[C@]4(C)[C@@]3(F)[C@@H](O)C[C@]2(C)[C@@]1(O)C(=O)CO` [dexamethasone] was tested. Which “concentration giving maximum induction of histone acetylation” value ([2]; between 4-8 hr) did it give?
The value was ≥ 10^−8 M.

And the basal histone acetylation ([2]; dexamethasone 10^−10 M alone, no effect)?
Its basal histone acetylation is 23.7±4.1 dpm/μg protein.

And the “IL-1β plus dexamethasone-stimulated histone acetylation” value ([2]; dexamethasone 10^−10 M, no TSA)?
Its value is 37±5 dpm/μg protein.

What about the dexamethasone-induced histone acetylation ([2]; without TSA) of the same compound?
The dexamethasone-induced histone acetylation was 71±9 dpm/μg protein.

What about the “IC50, p65-associated IL-1β-induced histone acetylation” value [3] of the same compound?
Its value is 0.4 nM.

And the “IC50, p65-associated histone acetylation in the presence of TSA” value ([3]; TSA 100 ng/ml)?
The value was 90 nM.

And the “CBP or PCAF expression” value (CBP, PCAF)?
Its value is “no effect”.

And the EC50 ([5]; Homo sapiens, A549, read-out: EC50, induction of SLPI)?
Its EC50 is 9 nM.

And the “concentration of maximum SLPI induction” value ([5]; dexamethasone alone)?
The value was 1 µM.

And the “acetylated histone H4 K5” value [6]?
The value was 53±9 % positive nuclei.

What about the “acetylated histone H4 K16” value [6] of the same compound?
Its value is 36±16 % positive nuclei.

What about the “total cell HDAC activity after IL-1β plus H2O2” value ([1]; 4 hrs, theophylline pre-treatment 10^−5 M, 10 min) of the same compound?
Its value is “no effect”.

And the IC50 ([9]; CBP immunoprecipitated under stringent IP conditions, read-out: IC50, IL-1β-stimulated CBP-dependent histone acetylation)?
Its IC50 is 8 nM.

And the “IC50, IL-1β-induced CBP-associated histone acetylation” value ([9]; CBP isolated under mild IP conditions)?
Its value is 0.04 nM.

Which “basal histone acetylation with TSA” value ([2]; TSA 1 ng/ml) does the source give for `CC(/C=C/C(=O)NO)=C\[C@@H](C)C(=O)c1ccc(N(C)C)cc1` [TSA, trichostatin A] here?
Its value is 162±21 dpm/μg protein.

What about the “dexamethasone-induced histone acetylation with TSA” value ([2]; TSA 1 ng/ml, versus 71±9) of the same compound?
The value was 984±50 dpm/μg protein.

And the “IL-1β-stimulated histone acetylation with TSA” value ([2]; TSA 1 ng/ml, versus 137±15)?
Its value is 1543±143 dpm/μg protein.

What about the “IL-1β plus dexamethasone (10^−10 M)-stimulated histone acetylation with TSA” value ([2]; TSA 100 ng/ml, versus 37±5) of the same compound?
The value was 435±28 dpm/μg protein.

And the “IL-1β-stimulated histone acetylation with TSA” value ([2]; TSA 100 ng/ml, versus 71±9)?
Its value is 1543±143 dpm/μg protein.

And the “IL-1β-induced GM-CSF release” value ([4]; IL-1β 1 ng/ml plus TSA 1 ng/ml, versus 157±6 without TSA)?
The value was 233 ± 12 ng/mL.

And the “effect of TSA on dexamethasone (10^−6 M) suppression of GM-CSF release” value ([4]; IL-1β plus H2O2)?
Its value is “unable to block”.

What about the “effect of TSA on suppression of GM-CSF release by combined treatment” value ([4]; IL-1β plus H2O2) of the same compound?
Its value is “blocked”.

And the “effect of TSA pre-treatment on repression of GM-CSF release by combined treatment” value ([4]; IL-1β-stimulated)?
Its value is “blocked”.

What about the “GM-CSF release in the presence of TSA” value ([4]; IL-1β-stimulated, with or without dexamethasone 10^−6 M) of the same compound?
The value was 969 ± 84 pg/mL.

What about the SLPI production ([5]; IL-1β 1 ng/ml after pretreatment with TSA 1 ng/ml, versus 6.0±0.5) of the same compound?
Its SLPI production is 8.2 ± 0.3 ng/mL.

And the “IC50, decrease in HDAC activity” value ([1]; A549 cells, 6 hrs)?
Its value is 1.1 ng/mL (≈ 3.64 nM).

And the “HDAC activity in A549 cells” value ([1]; TSA, increasing concentrations, 6 hrs, decrease from 112±21)?
The value was 11±3 dpm/ng protein.
